Legend:
Experiment in all cases: relative viability (nuclei count vs DMSO), 5 days (fraction); higher = more cells survive
Motesanib + Navitoclax = compound: CC1(C)CNc2cc(NC(=O)c3cccnc3NCc3ccncc3)ccc21 [Motesanib] + CC1(C)CCC(c2ccc(Cl)cc2)=C(CN2CCN(c3ccc(C(=O)NS(=O)(=O)c4ccc(N[C@H](CCN5CCOCC5)CSc5ccccc5)c(S(=O)(=O)C(F)(F)F)c4)cc3)CC2)C1 [Navitoclax] (partner 0.5 µM)
In short: (§1)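 For relative viability, nuclei counts in treated wells were divided by those in vehicle wells. Lung cancer cell lines had been pin-tool dosed in 1536-well plates the day after seeding and cultured for 5 days, then fixed and stained in one step (final 0.05% Triton X-100, 1% formaldehyde, 1 ug/ml Hoechst) and imaged at 4×. Doses were one drug alone or a fixed anchor-drug dose plus five library-drug doses (not always all listed) in √10 steps, and values are duplicate-plate medians.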

Motesanib + Foretinib = compound: CC1(C)CNc2cc(NC(=O)c3cccnc3NCc3ccncc3)ccc21 [Motesanib] + COc1cc2c(Oc3ccc(NC(=O)C4(C(=O)Nc5ccc(F)cc5)CC4)cc3F)ccnc2cc1OCCCN1CCOCC1 [Foretinib] (partner 0.25 µM)
In short: as §1

[1] = compound: C[C@@]1(C(=O)Nc2ccc(F)nc2)CCCN1c1nc(Nc2cc(C3CC3)n[nH]2)c2cccn2n1
In short: (§2)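 A plate was accepted only when its control CV was below 25% and the cells had doubled at least once. Viability is defined from nuclear counts as treated wells divided by vehicle wells, with the median taken across plates. That median covers lung cancer cell lines grown in 1536-well plates, dosed by pinning at five √10-spaced library-drug concentrations, and counted in MetaXpress from 4× Hoechst images after 5 days.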

Motesanib = compound: CC1(C)CNc2cc(NC(=O)c3cccnc3NCc3ccncc3)ccc21 [Motesanib]
In short: as §2

Cell Line	relative viability (Motesanib + Navitoclax; first compound 0.01 µM)	relative viability (Motesanib + Navitoclax; first compound 0.03162 µM)	relative viability (Motesanib + Navitoclax; first compound 0.1 µM)	relative viability (Motesanib + Navitoclax; first compound 0.3162 µM)	relative viability (Motesanib + Navitoclax; first compound 1 µM)	relative viability (Motesanib + Foretinib; first compound 0.01 µM)	relative viability (Motesanib + Foretinib; first compound 0.03162 µM)	relative viability (Motesanib + Foretinib; first compound 0.1 µM)	relative viability (Motesanib + Foretinib; first compound 0.3162 µM)	relative viability (Motesanib + Foretinib; first compound 1 µM)	relative viability ([1]; 0.04 µM)	relative viability ([1]; 0.1265 µM)	relative viability ([1]; 0.4 µM)	relative viability ([1]; 1.265 µM)	relative viability (Motesanib; 0.01 µM)	relative viability (Motesanib; 0.03162 µM)	relative viability (Motesanib; 0.1 µM)	relative viability (Motesanib; 0.3162 µM)	relative viability (Motesanib; 1 µM)
NCI-H3122	0.937	1.04	0.981	1.06	1.04	0.951	0.938	0.821	1.01	0.986	0.979	0.986	0.99	0.962	0.98	1.02	1.04	1.05	1.05
NCI-H460	1.15	1.05	1.09	1.14	1.24	0.942	0.966	1	1.01	1.04	0.982	1.01	1.01	0.953	0.999	0.974	0.981	1.02	1
NCI-H1793	0.594	0.445	0.41	0.583	0.33	0.815	0.566	0.721	0.591	0.805	0.974	0.738	0.67	1.04	0.865	1.02	0.867	0.963	0.967
NCI-H1734	0.861	0.915	0.796	0.959	0.938	0.932	0.883	–	0.879	0.968	0.855	0.721	0.651	0.615	0.968	1.01	0.948	1.07	1.01
LXF-289	0.923	0.957	0.931	0.955	0.951	1	0.952	0.924	1.03	0.987	1.03	0.978	0.997	1.03	0.991	0.999	1.02	1.15	1.03
H3255	0.507	0.603	0.544	0.506	0.529	0.837	0.762	0.889	0.791	0.976	1.05	0.954	0.931	0.882	0.905	1.04	0.978	1.05	1.01
201T	1.2	1.21	1.21	1.19	1.2	1.09	1.1	0.997	1.13	1.1	0.955	0.833	0.682	0.796	0.982	0.971	1.02	0.987	0.963
NCI-H2126	0.821	0.84	0.874	0.878	0.813	1.13	1.12	1.17	1.31	1.11	0.882	0.614	0.553	0.599	1.03	1.04	1.01	1.04	1.07
HOP-62	1.12	0.939	1.07	1.15	1.26	1.17	1.1	1.02	1.1	1.21	1.03	0.97	0.914	1.08	1.06	1.04	1.12	1.09	1.11
CAL-12T	1.34	1.47	1.3	1.24	1.28	1.13	1.19	1.2	1.19	1.12	1.03	0.863	0.884	0.664	0.951	0.975	0.967	1.05	0.965
NCI-H520	1.12	0.982	1.1	1.03	1.04	0.857	0.79	0.922	0.851	0.948	0.977	0.915	0.953	0.99	0.931	1.03	0.971	1.05	0.906
NCI-H1755	0.938	0.966	1.02	0.991	1	0.904	0.914	0.925	1.01	0.842	1.02	0.875	0.92	0.958	1.01	0.989	1.03	1.07	1.03
NCI-H2023	0.949	0.916	1.02	1.02	0.98	0.849	0.838	0.837	0.911	0.927	0.881	0.613	0.547	0.394	1.02	0.906	0.955	1.01	0.979
NCI-H2009	1.12	1.19	1.15	1.21	1.18	1.23	1.21	1.23	1.22	1.21	1.06	1.03	0.936	1	1.02	0.993	1.08	1.02	0.964
